Assay: Stability of [18F]-C-SNAT4 in mouse serum (HPLC)
Assay type: in vitro ADME
Details: 37° C., over 2 h incubation
Experimental: FIG. 1B illustrates the serum stability of [^18F]-C-SNAT4 in mouse serum. [^18F]-C-SNAT4 was incubated in serum at 37° C. and analyzed by HPLC.
At 24 h post treatment, mixture tracer of [^19F]-C-SNAT4 was injected with [^18F]-C-SNAT4 (mixture ratio at 1:200) through the tail vein for PET imaging (FIG. 24A-24C). For treated animal, tumor uptake of mixture tracer [^18F]/[^19F]-C-SNAT4 and [^18F]-C-SNAT4 were 2.9±0.3% ID/cc and 1.7±0.1% ID/cc, respectively at 85 min post injection. There was 1.7-fold increase of radioactivity in the mixture-treated mice. Overall, the uptake of [^18F]-C-SNAT4 was increased both in radiation and drug-treated tumors. In contrast, the tumor uptake of [^18F]/[^19F]-C-SNAT4 (ratio at 1:200) and [^18F]/[^19F]-C-SNAT4 (ratio at 1:80) in untreated tumor was 0.5±0.2% ID/cc and 0.3±0.2% ID/cc, respectively at 85 min after injection (FIG. 25A-25C), followed by a rapid signal decay back to baseline within a few minutes. There were no changes compared to the uptake of [^18F]-C-SNAT4 (0.4±0.1% ID/cc). […] The sample was centrifuged at 13,400 g for 10 min and […] of the resultant supernatant was diluted with […] of water and analyzed on HPLC. % intact tracer was calculated as %=(peak area for tracer/total peak area on the HPLC chromatogram)×100.

CCSSCC(NC(=O)C(CC(=O)O)NC(=O)C(NC(=O)C(CCC(=O)O)NC(=O)C(CC(=O)O)NC(C)=O)C(C)C)C(=O)NCC(=O)NC(Cc1cn(CCOCCOCCOCC[18F])nn1)C(=O)NCc1ccc(C(=O)NCCCOc2cnc(C#N)nc2)cc1 (stereo not shown) [[^18F]-C-SNAT4]
percentage of [18F]-C-SNAT4 remained: 77.2%

From patent US11679168B2, “Caspase-3-triggered molecular self-assembling PET probes and uses thereof” (The Board of Trustees of the Leland Stanford Junior …, priority 2018, dated 2023)
